Measured values: US12139492B2 (Endotarget Inc., priority 2021, dated 2024)

Assays:
JeKo-1 cells = test: Antiproliferative effect, MTS cell viability assay, JeKo-1 cells; assay type: cell-based; settings: Homo sapiens; JeKo-1 mantle cell lymphoma cells; read-out: IC50 (anti-proliferation) JeKO-1 cells
Method in brief: (§1)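 Readout was MTS-derived formazan absorbance (490 nm) reflecting metabolically active cells. Treatment lasted 72 h over a 0–10 μM range (0.001, 0.01, 0.1, 1, 10 μM) in JeKo-1 and Mino B-cell malignancy cells.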

BTK = BTK (Homo sapiens, UniProt Q06187); test: Degradation of BTK protein in Namalwa cells (Western blot; DC50, Dmax); settings: for DC50: BTK degradation, cell line not given
Mino cells = test: Antiproliferative effect, MTS cell viability assay, Mino cells; assay type: cell-based; settings: Homo sapiens, MINO, Mino mantle cell lymphoma cells; read-out: IC50 (anti-proliferation) Mino cells
Method in brief: as §1

BTK, sequence (Q06187 whole entry): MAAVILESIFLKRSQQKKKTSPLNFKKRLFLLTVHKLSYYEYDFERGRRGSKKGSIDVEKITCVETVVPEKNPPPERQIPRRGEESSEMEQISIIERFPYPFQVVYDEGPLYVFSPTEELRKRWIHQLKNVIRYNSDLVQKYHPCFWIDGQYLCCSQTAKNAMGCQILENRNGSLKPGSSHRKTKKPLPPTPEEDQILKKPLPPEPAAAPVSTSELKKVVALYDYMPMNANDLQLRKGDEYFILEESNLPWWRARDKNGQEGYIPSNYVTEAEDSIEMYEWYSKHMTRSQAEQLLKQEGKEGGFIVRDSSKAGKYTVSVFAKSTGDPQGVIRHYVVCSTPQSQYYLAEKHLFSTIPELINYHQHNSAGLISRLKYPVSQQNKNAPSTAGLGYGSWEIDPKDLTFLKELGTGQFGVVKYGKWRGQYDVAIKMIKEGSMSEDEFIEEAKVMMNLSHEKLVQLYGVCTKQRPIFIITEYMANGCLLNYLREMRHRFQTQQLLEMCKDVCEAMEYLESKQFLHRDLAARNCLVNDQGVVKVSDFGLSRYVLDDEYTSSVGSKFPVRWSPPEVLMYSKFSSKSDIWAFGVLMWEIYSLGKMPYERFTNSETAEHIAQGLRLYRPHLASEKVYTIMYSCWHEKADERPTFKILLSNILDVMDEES

| Dmax (BTK) | DC50 (BTK) | SMILES | IC50 (JeKo-1 cells) | IC50 (Mino cells) |
| --- | --- | --- | --- | --- |
| > 75% | > 50 nM | NC(=O)c1c(-c2ccc(Oc3ccccc3)cc2)nn2c1NCCC2C1CCN(C2CCN(CCN3CCN(c4ccc5c(c4)C(=O)N(C4CCC(=O)NC4=O)C5=O)CC3)CC2)CC1 (stereo not shown) [Compound 307, 7-(1′-(2-(4-(2-(2,6-dioxopiperidin-3-yl)-1,3-dioxoisoindolin-5-yl)piperazin-1-yl)ethyl)-[1,4′-bipiperidin]-4-yl)-2-(4-phenoxyphenyl)-4,5,6,7-tetrahydropyrazolo[1,5-a]pyrimidine-3-carboxamide] | > 10000 nM | 1000 to 10000 nM |
| > 75% | 10 to 50 nM | NC(=O)c1c(-c2ccc(Oc3ccccc3)cc2)nn2c1NCCC2C1CCN(C2CCN(CCN3CCN(c4ccc5c(c4)CN(C4CCC(=O)NC4=O)C5=O)CC3)CC2)CC1 (stereo not shown) [Compound 308, 7-(1′-(2-(4-(2-(2,6-dioxopiperidin-3-yl)-1-oxoisoindolin-5-yl)piperazin-1-yl)ethyl)-[1,4′-bipiperidin]-4-yl)-2-(4-phenoxyphenyl)-4,5,6,7-tetrahydropyrazolo[1,5-a]pyrimidine-3-carboxamide] | > 10000 nM | 1000 to 10000 nM |
| > 75% | 10 to 50 nM | NC(=O)c1c(-c2ccc(Oc3ccccc3)cc2)nn2c1NCCC2C1CCN(C2CCN(CCC3CCN(c4ccc5c(c4)C(=O)N(C4CCC(=O)NC4=O)C5=O)CC3)CC2)CC1 (stereo not shown) [Compound 309, 7-(1′-(2-(1-(2-(2,6-dioxopiperidin-3-yl)-1,3-dioxoisoindolin-5-yl)piperidin-4-yl)ethyl)-[1,4′-bipiperidin]-4-yl)-2-(4-phenoxyphenyl)-4,5,6,7-tetrahydropyrazolo[1,5-a]pyrimidine-3-carboxamide] | > 10000 nM | > 10000 nM |
| > 75% | 10 to 50 nM | NC(=O)c1c(-c2ccc(Oc3ccccc3)cc2)nn2c1NCCC2C1CCN(C2CCN(CCC3CCN(c4ccc5c(c4)CN(C4CCC(=O)NC4=O)C5=O)CC3)CC2)CC1 (stereo not shown) [Compound 310, 7-(1′-(2-(1-(2-(2,6-dioxopiperidin-3-yl)-1-oxoisoindolin-5-yl)piperidin-4-yl)ethyl)-[1,4′-bipiperidin]-4-yl)-2-(4-phenoxyphenyl)-4,5,6,7-tetrahydropyrazolo[1,5-a]pyrimidine-3-carboxamide] | > 10000 nM | > 10000 nM |
| > 75% | > 50 nM | NC(=O)c1c(-c2ccc(Oc3ccccc3)cc2)nn2c1NCCC2C1CCN(C2CCN(CCN3CCC(c4ccc5c(c4)C(=O)N(C4CCC(=O)NC4=O)C5=O)CC3)CC2)CC1 (stereo not shown) [Compound 311, 7-(1′-(2-(4-(2-(2,6-dioxopiperidin-3-yl)-1,3-dioxoisoindolin-5-yl)piperidin-1-yl)ethyl)-[1,4′-bipiperidin]-4-yl)-2-(4-phenoxyphenyl)-4,5,6,7-tetrahydropyrazolo[1,5-a]pyrimidine-3-carboxamide] | > 10000 nM | > 10000 nM |
| > 75% | > 50 nM | NC(=O)c1c(-c2ccc(Oc3ccccc3)cc2)nn2c1NCCC2C1CCN(C2CCN(CCN3CCC(c4ccc5c(c4)CN(C4CCC(=O)NC4=O)C5=O)CC3)CC2)CC1 (stereo not shown) [Compound 312, 7-(1′-(2-(4-(2-(2,6-dioxopiperidin-3-yl)-1-oxoisoindolin-5-yl)piperidin-1-yl)ethyl)-[1,4′-bipiperidin]-4-yl)-2-(4-phenoxyphenyl)-4,5,6,7-tetrahydropyrazolo[1,5-a]pyrimidine-3-carboxamide] | > 10000 nM | > 10000 nM |
| > 90% | 10 to 50 nM | NC(=O)c1c(-c2ccc(Oc3ccccc3)cc2)nn2c1NCCC2C1CCN(CC2CCN(CC3CCN(c4ccc5c(c4)C(=O)N(C4CCC(=O)NC4=O)C5=O)CC3)CC2)CC1 (stereo not shown) [Compound 313, 7-(1-((1-((1-(2-(2,6-dioxopiperidin-3-yl)-1,3-dioxoisoindolin-5-yl)piperidin-4-yl)methyl)piperidin-4-yl)methyl)piperidin-4-yl)-2-(4-phenoxyphenyl)-4,5,6,7-tetrahydropyrazolo[1,5-a]pyrimidine-3-carboxamide] | 1000 to 10000 nM | 1000 to 10000 nM |
| > 90% | 10 to 50 nM | NC(=O)c1c(-c2ccc(Oc3ccccc3)cc2)nn2c1NCCC2C1CCN(CC2CCN(CC3CCN(c4ccc5c(c4)CN(C4CCC(=O)NC4=O)C5=O)CC3)CC2)CC1 (stereo not shown) [Compound 314, 7-(1-((1-((1-(2-(2,6-dioxopiperidin-3-yl)-1-oxoisoindolin-5-yl)piperidin-4-yl)methyl)piperidin-4-yl)methyl)piperidin-4-yl)-2-(4-phenoxyphenyl)-4,5,6,7-tetrahydropyrazolo[1,5-a]pyrimidine-3-carboxamide] | 1000 to 10000 nM | 1000 to 10000 nM |
| > 75% | > 50 nM | NC(=O)c1c(-c2ccc(Oc3ccccc3)cc2)nn2c1NCCC2C1CCN(CC2CCN(CCN3CCN(c4ccc5c(c4)C(=O)N(C4CCC(=O)NC4=O)C5=O)CC3)CC2)CC1 (stereo not shown) [Compound 315, 7-(1-((1-(2-(4-(2-(2,6-dioxopiperidin-3-yl)-1,3-dioxoisoindolin-5-yl)piperazin-1-yl)ethyl)piperidin-4-yl)methyl)piperidin-4-yl)-2-(4-phenoxyphenyl)-4,5,6,7-tetrahydropyrazolo[1,5-a]pyrimidine-3-carboxamide] | 1000 to 10000 nM | 1000 to 10000 nM |
| > 75% | 10 to 50 nM | NC(=O)c1c(-c2ccc(Oc3ccccc3)cc2)nn2c1NCCC2C1CCN(CC2CCN(CCN3CCN(c4ccc5c(c4)CN(C4CCC(=O)NC4=O)C5=O)CC3)CC2)CC1 (stereo not shown) [Compound 316, 7-(1-((1-(2-(4-(2-(2,6-dioxopiperidin-3-yl)-1-oxoisoindolin-5-yl)piperazin-1-yl)ethyl)piperidin-4-yl)methyl)piperidin-4-yl)-2-(4-phenoxyphenyl)-4,5,6,7-tetrahydropyrazolo[1,5-a]pyrimidine-3-carboxamide] | 1000 to 10000 nM | 1000 to 10000 nM |
| > 75% | > 50 nM | NC(=O)c1c(-c2ccc(Oc3ccccc3)cc2)nn2c1NCCC2C1CCN(CC2CCN(CCC3CCN(c4ccc5c(c4)C(=O)N(C4CCC(=O)NC4=O)C5=O)CC3)CC2)CC1 (stereo not shown) [Compound 317, 7-(1-((1-(2-(1-(2-(2,6-dioxopiperidin-3-yl)-1,3-dioxoisoindolin-5-yl)piperidin-4-yl)ethyl)piperidin-4-yl)methyl)piperidin-4-yl)-2-(4-phenoxyphenyl)-4,5,6,7-tetrahydropyrazolo[1,5-a]pyrimidine-3-carboxamide] | > 10000 nM | 1000 to 10000 nM |
| > 75% | > 50 nM | NC(=O)c1c(-c2ccc(Oc3ccccc3)cc2)nn2c1NCCC2C1CCN(CC2CCN(CCC3CCN(c4ccc5c(c4)CN(C4CCC(=O)NC4=O)C5=O)CC3)CC2)CC1 (stereo not shown) [Compound 318, 7-(1-((1-(2-(1-(2-(2,6-dioxopiperidin-3-yl)-1-oxoisoindolin-5-yl)piperidin-4-yl)ethyl)piperidin-4-yl)methyl)piperidin-4-yl)-2-(4-phenoxyphenyl)-4,5,6,7-tetrahydropyrazolo[1,5-a]pyrimidine-3-carboxamide] | > 10000 nM | 1000 to 10000 nM |
| > 75% | 10 to 50 nM | NC(=O)c1c(-c2ccc(Oc3ccccc3)cc2)nn2c1NCCC2C1CCN(CC2CCN(CCN3CCC(c4ccc5c(c4)C(=O)N(C4CCC(=O)NC4=O)C5=O)CC3)CC2)CC1 (stereo not shown) [Compound 319, 7-(1-((1-(2-(4-(2-(2,6-dioxopiperidin-3-yl)-1,3-dioxoisoindolin-5-yl)piperidin-1-yl)ethyl)piperidin-4-yl)methyl)piperidin-4-yl)-2-(4-phenoxyphenyl)-4,5,6,7-tetrahydropyrazolo[1,5-a]pyrimidine-3-carboxamide] | > 10000 nM | 1000 to 10000 nM |
| > 90% | 10 to 50 nM | NC(=O)c1c(-c2ccc(Oc3ccccc3)cc2)nn2c1NCCC2C1CCN(CC2CCN(CCN3CCC(c4ccc5c(c4)CN(C4CCC(=O)NC4=O)C5=O)CC3)CC2)CC1 (stereo not shown) [Compound 320, 7-(1-((1-(2-(4-(2-(2,6-dioxopiperidin-3-yl)-1-oxoisoindolin-5-yl)piperidin-1-yl)ethyl)piperidin-4-yl)methyl)piperidin-4-yl)-2-(4-phenoxyphenyl)-4,5,6,7-tetrahydropyrazolo[1,5-a]pyrimidine-3-carboxamide] | 1000 to 10000 nM | 1000 to 10000 nM |
| > 75% | 10 to 50 nM | NC(=O)c1c(-c2ccc(Oc3ccccc3)cc2)nn2c1NCC[C@H]2C1CCN(C2CCN(CC3CCN(c4ccc5c(c4)C(=O)N(C4CCC(=O)NC4=O)C5=O)CC3)CC2)CC1 (stereo partly drawn) [Compound 321, (7S)-7-(1′-((1-(2-(2,6-dioxopiperidin-3-yl)-1,3-dioxoisoindolin-5-yl)piperidin-4-yl)methyl)-[1,4′-bipiperidin]-4-yl)-2-(4-phenoxyphenyl)-4,5,6,7-tetrahydropyrazolo[1,5-a]pyrimidine-3-carboxamide] | > 10000 nM | > 10000 nM |
| > 90% | 10 to 50 nM | NC(=O)c1c(-c2ccc(Oc3ccccc3)cc2)nn2c1NCC[C@H]2C1CCN(C2CCN(CC3CCN(c4ccc5c(c4)CN(C4CCC(=O)NC4=O)C5=O)CC3)CC2)CC1 (stereo partly drawn) [Compound 322, (7S)-7-(1′-((1-(2-(2,6-dioxopiperidin-3-yl)-1-oxoisoindolin-5-yl)piperidin-4-yl)methyl)-[1,4′-bipiperidin]-4-yl)-2-(4-phenoxyphenyl)-4,5,6,7-tetrahydropyrazolo[1,5-a]pyrimidine-3-carboxamide] | 1000 to 10000 nM | 1000 to 10000 nM |
